In EPA's ToxValDB 9.5 (doi:10.2903/j.efsa.2010.1669):
In brackets after ≈: the same amount, converted by molar mass.

Legend:
[1] = system: Colinus virginianus; settings: for LD50: acute, oral, mortality
[2] = system: Rattus norvegicus; settings: for NOAEL: body weight
[3] = system: Oncorhynchus mykiss
[4] = system: Daphnia magna; settings: chronic/long-term; duration: 21 days; reproduction
[5] = system: Tagia sp.; settings: acute; duration: 14 days; mortality
[6] = system: Oryctolagus sp.; settings: developmental; development
[7] = system: Canidae; settings: oral, Dog Other, organ weight
[8] = system: Apis mellifera; settings: acute; duration: 48 hours; dermal; mortality
[9] = system: Aphidius rhopalosiphi; experiment: LR50; higher = less toxic; settings: not reported; mortality

Structure (SMILES): CCCC(=NOCC)C1=C(O)CC(C2CCCSC2)CC1=O (stereo unspecified) [Cycloxydim]
- LD50 ([1]; diet): 497 mg/kg-day
- LD50 [1]: > 2000 mg/kg-day
- NOEC ([1]; reproduction developmental): 65.4 mg/kg-day
- LD50 ([2]; acute, oral, mortality): 3830 mg/kg-day
- NOAEL ([2]; chronic, duration: 18 months): 7 mg/kg-day
- NOAEL ([2]; chronic, duration: 24 months): 7 mg/kg-day
- NOAEL ([2]; reproduction developmental): 9.7 mg/kg-day
- LC50 ([3]; acute, duration: 96 hours, mortality): 220 µg/mL (≈ 676 µM)
- NOEC ([3]; chronic/long-term, duration: 28 days, growth): 21.5 mg/L
- NOEC [4]: 62.5 mg/L
- LC50 [5]: > 1000 mg/kg
- NOAEL [6]: 200 mg/kg-day
- NOAEL ([7]; chronic, duration: 1 years): 10 mg/kg-day
- NOAEL ([7]; subchronic, duration: 3 months): 10 mg/kg-day
- LD50 [8]: > 100 µg/piece
- LR50 [9]: 90.2 g/ha
